What was measured:
MSSE CANWARD-2008 81388 = assay: MIC, microbroth dilution; format: cell-based; conditions: standalone
Procedure: (§1) Antimicrobial Susceptibility Assay. The in vitro antimicrobial activity of all compounds/antibiotics against a panel of bacteria was evaluated by microbroth dilution method in accordance with the Clinical and Laboratory Standards Institute (CLSI) guidelines. Overnight grown bacterial cultures were diluted in saline to achieve a 0.5 McFarland turbidity, followed by 1:50 dilution in Mueller-Hinton broth (MHB) for inoculation to a final concentration of approximately 5×10^5CFU/mL. The antimicrobial agents were 2-fold serially diluted in MHB in a 96-well plate and incubated at 37° C. with equal volumes of inoculum for 18 h. The lowest concentration that prevented the visible growth of bacteria was defined as the MIC for each antimicrobial agent. The broth with or without bacterial cells was used as positive or negative control, respectively.

E. coli ATCC 25922 = assay: MIC, microbroth dilution; format: cell-based; conditions: standalone
Procedure: as §1

[1] = tested on: MRSE CAN-ICU 61589 (CAZ >32); assay: MIC, microbroth dilution; format: cell-based; conditions: standalone
Procedure: as §1

[2] = tested on: human liver carcinoma (HepG2) cells; assay: Cytotoxicity, PrestoBlue cell viability assay; format: cell-based; conditions: highest concentration 50 μM, 48 h
Procedure: Cytotoxicity Assay. Human embryonic kidney cells (HEK293) and HepG2 cells were grown in Dulbecco's modified eagle's medium supplemented with 10% fetal bovine serum in a humidified […] incubator at 37° C. Equal number of cells (100 μl of media containing ˜8000 cells) were dispersed into 96-well plates and wells with medium but no cells were used as blanks. After incubating for 24 h, […] varying concentrations of test compounds (at twice the desired concentrations) were added to each well, including the blanks. The treated cells were then incubated further for 48 h, after which PrestoBlue reagent was added to each well. The plates were then incubated for an additional hour on a nutator mixer in a 5% CO2 incubator. The fluorescence was read at […] on a SpectraMax M2 plate reader (Molecular Devices, USA). Cell viability were interpreted as previously described (55, 77). The values of blank were subtracted from each value, and the viability values of the treated samples relative to the controls with vehicle were calculated. The values for the plots are the means±standard deviation.

K. pneumoniae ATCC 13883 = assay: MIC, microbroth dilution; format: cell-based, Klebsiella pneumoniae; conditions: standalone
Procedure: as §1

[3] = tested on: A. baumannii CAN-ICU 63169; assay: MIC, microbroth dilution; format: cell-based; conditions: standalone
Procedure: as §1

E. faecium ATCC 27270 = assay: MIC, microbroth dilution; format: cell-based; conditions: standalone
Procedure: as §1

[4] = tested on: E. coli CAN-ICU 61714 (GEN-R); assay: MIC, microbroth dilution; format: cell-based; conditions: standalone
Procedure: as §1

S. aureus ATCC 29213 = assay: MIC, microbroth dilution; format: cell-based; conditions: standalone
Procedure: as §1

E. faecalis ATCC 29212 = assay: MIC, microbroth dilution; format: cell-based; conditions: standalone
Procedure: as §1

[5] = tested on: S. maltophilia CAN-ICU 62584; assay: MIC, microbroth dilution; format: cell-based; conditions: standalone
Procedure: as §1

S. pneumoniae ATCC 49619 = assay: MIC, microbroth dilution; format: cell-based; conditions: standalone
Procedure: as §1

MRSA ATCC 33592 = assay: MIC, microbroth dilution; format: cell-based; conditions: standalone
Procedure: as §1

[6] = tested on: E. coli CANWARD-2011 97615 (GEN-R, TOB-R, CIP-R) aac(3′)iia; assay: MIC, microbroth dilution; format: cell-based; conditions: standalone; E. coli CANWARD-2011 97615 (GEN-R, TOB-R, CIP-R)
Procedure: as §1

[7] = tested on: E. coli CAN-ICU 63074 (AMK 32); assay: MIC, microbroth dilution; format: cell-based; conditions: standalone
Procedure: as §1

[8] = tested on: P. aeruginosa CAN-ICU 62308 (GEN-R); assay: MIC, microbroth dilution; format: cell-based, Pseudomonas aeruginosa; conditions: standalone
Procedure: as §1

P. aeruginosa ATCC 27853 = assay: MIC, microbroth dilution; format: cell-based, Pseudomonas aeruginosa; conditions: standalone
Procedure: as §1

[9] = tested on: P. aeruginosa CANWARD-2011 96846 (GEN-R, TOB-R); assay: MIC, microbroth dilution; format: cell-based, Pseudomonas aeruginosa; conditions: standalone
Procedure: as §1

Compound: 5-O-(Dodecylcyclam)-tobramycin.9HCl [Compound 3]
- MIC (MSSE CANWARD-2008 81388): 16 µg/mL
- MIC (E. coli ATCC 25922): 64 µg/mL
- MIC [1]: 32 µg/mL
- cell viability [2]: about 60%
- MIC (K. pneumoniae ATCC 13883): 64 µg/mL

Compound: NCC1OC(OC2C(N)CC(N)C(OC3OC(CO)C(O)C(N)C3O)C2OCCCCN2CCCNCCNCCCNCC2)C(N)CC1O.O=C(O)C(F)(F)F.O=C(O)C(F)(F)F.O=C(O)C(F)(F)F.O=C(O)C(F)(F)F.O=C(O)C(F)(F)F.O=C(O)C(F)(F)F.O=C(O)C(F)(F)F.O=C(O)C(F)(F)F.O=C(O)C(F)(F)F (stereo not shown) [Compound 1, 5-O-(Butylcyclam)-tobramycin.9TFA]
- MIC [3]: >128 µg/mL
- MIC (E. faecium ATCC 27270): >128 µg/mL
- MIC [4]: 128 µg/mL
- MIC (S. aureus ATCC 29213): 64 µg/mL
- MIC (E. faecalis ATCC 29212): >128 µg/mL
- MIC [5]: >128 µg/mL
- MIC (S. pneumoniae ATCC 49619): >128 µg/mL
- MIC (MSSE CANWARD-2008 81388): 16 µg/mL
- MIC (MRSA ATCC 33592): 64 µg/mL
- MIC (E. coli ATCC 25922): 64 µg/mL
- MIC [1]: 64 µg/mL
- MIC [6]: >128 µg/mL
- MIC [7]: >128 µg/mL
- MIC [8]: >128 µg/mL
- MIC (P. aeruginosa ATCC 27853): >128 µg/mL
- MIC [9]: >128 µg/mL
- MIC (K. pneumoniae ATCC 13883): 32 µg/mL

From patent publication US20210290648A1, “Potentiation of B-Lactam Antibiotics and B-Lactam/B-Lactamase Inhibitor Combinations Against Multidrug and Extensively Drug-Resistant Pseudomonas Aeruginosa Using Non-Ribosomal Tobramycin-Cyclam Conjugates” (University of Manitoba, priority 2018, published 2021)
